According to US4368194A, “Pharmacologically active amine boranes” (The United States of America as represented by the …, priority 1981, dated 1983):
Like-named read-outs stand apart in the source and are kept apart here.

Legend:
liver mitochondria [1] = assay: Oxidative phosphorylation, α-ketoglutarate as substrate; format: biochemical, rats; details: 5 μmoles; for Oxidative Phosphorylation α Ketoglutarate State 3: ADP stimulated respiration; for Oxidative Phosphorylation α Ketoglutarate State 4: basal respiration
Experimental: (§1) Basal and adenosine diphosphate stimulated respiration on 10% liver homogenates was measured using succinate or αketoglutarate as substrate. See Glatt, et al., supra. The reaction vessel contained sucrose 55μ moles, KCl 22μ moles, K2 HPO4 22μ moles, test compounds at 5μ moles in 1% CMC and sodium succinate 90μ moles or αketoglutarate 60μ moles in a total volume of 1.8 ml. […] The rate of respiration was calculated at μl of O2 consumed/hr/mg wet weight of liver.

liver mitochondria [2] = assay: Oxidative phosphorylation, succinate as substrate; format: biochemical, rats; details: 5 μmoles; for Oxidative Phosphorylation Succinate State 3: ADP stimulated respiration; for Oxidative Phosphorylation Succinate State 4: basal respiration
Experimental: as §1

Cathepsin [3] = assay: Lysosomal free cathepsin activity, PMNs; format: cell-based; details: 5 μmoles; for PMNs % Free Cathespin Activity, pH5: in vitro, 60 min
Experimental: (§2) Polymorphonuclear neutrophils (PMNs) were collected from the peritoneal cavity four hr after the injection of 35 ml of 0.5% oyster glycogen in isotonic saline (Orange et al., J. Exp. Med., 127, 767 1968). The PMNs were centrifuged down at 800 g for 20 min, washed, and resuspended in minumen essential medium (MEM) with 10% fetal calf serum pH 7.4.
(§3) Acid phosphatase activity (Gianetto et al., Biochem J., 59, 433 1955) was carried out by incubating with 0.1 Mβ-glycerol phosphate in 0.1 M acetate, pH 5.0 with 5 μmoles of test drugs in 1% carboxymethylcellulose (CMC) for 20 min with liver homogenate and 60 min with resuspended PMNs. Lysosome enzymes were released by 0.02% alkyl phenoxy polyethoxy ethanol-100 to obtain the total enzymatic activity. The reaction was stopped with 10% trichloroacetic acid and the solution centrifuged. Aliquots of the supernatant were assayed for inorganic phophate content by the method of Chen et al., Anal Chem., 28, 1756 (1956). Percent free acid phosphatase was calculated. Cathepsin activity was determined in an analagous manner except the substrate used was 2% azocasein (Schleuning et al., Methods in Enzymology, XLV, 330 1976) in 0.1 M acetate buffer pH 5.0. The supernatant was assayed for acid soluble peptide fragments at 366 nm. Percent free cathepsin activity was calculated.

[4] = tested on: carrageenan induced edema in mouse foot pads; assay: Anti-inflammatory screen (carrageenan induced foot edema); format: in vivo, mice; details: for Anti-inflammatory Screen: mice
Experimental: CF1 male mice (about 30 g) were administered test drugs at 10 mg/kg in 0.05% polysorbate .80-water intraperitoneally 3 hr and 30 min prior to 0.05 ml of 2% carrageenan in 0.9% saline injected into the plantar surface of the right hind foot. Saline injected into the left hind foot served as a base line. After 3 hr, both feet were excised at the tibiotarsal (ankle) joint according to the modified (Roszkowski et al., J. Pharm. Exp. Ther., 179, 114 1971) method of Winter, resulting in an 87 mg net increase in the weight of the control animals' feet.

in vivo = details: mouse
CF1 male mice = assay: Writhing reflex (acetic acid); format: in vivo; details: for Writhing Reflex: 20 mg/kg intraperitoneally, mice
Experimental: CF1 male mice were administered test drugs at 20 mg/kg intraperitoneally 20 min (see Hendershat et al., J. Pharmacol Exp. Ther. 125, 237 1959) prior to the administration of 0.5 ml of 0.6% acetic acid (Vingar et al., European J. PHarmacol, 37, 23 1976). After 5 min the number of stretches, characterized by repeated contractures of the abdominal musculature accompanied by extension of the hind limbs, was counted for the next 10 min. The control mice had 78 stretch reflexes per 10 min.

cAMP levels in PMNs = assay: Cyclic-3',5'-adenosine monophosphate levels (cAMP) in PMNs; format: cell-based; details: 1 h
Experimental: as §2
Isolated PMNs were incubated with test drugs at 5μ moles for 1 hr at 37° C. in MEM at pH 7.4. The reaction was stopped with 6% trichloroacetic acid. The cyclic-3',5'-adenosine monophosphate levels were determined by the radioimmunoassay of Gilman, Proc. Natl. Acad. Sci. (USA), 67, 305 (1970), using 3H(G)-cyclic-3',5'-adenosine monophosphate (39.8 Cu/m mol). Results were calculated in p mole/10^7 PMNs cells.

Acid phosphatase [5] = assay: Lysosomal free acid phosphatase activity, PMNs; format: cell-based; details: 5 μmoles, in vitro; 60 min
Experimental: as §2, §3

Acid phosphatase [6] = assay: Lysosomal free acid phosphatase activity, liver homogenate; format: biochemical, rats; details: 5 μmoles, in vitro; 20 min
Experimental: (§4) Lysosomal enzymatic assays - Sprague Dawley rats (about 160 g) were sacrificed, the liver excised, and a 10% homogenate (4x) in 0.25 M sucrose and 0.001 M (ethylenedinitrilo) tetra acetic acid, ph 7.2 was prepared.
as §3

[7] = biological target: T1, prostaglandin synthetase from beef seminal vesicle (Bos taurus, UniProt O62664); assay: Prostaglandin synthetase activity; format: biochemical; details: 10^-6 M; for activity at 1 µM: 1 h, read-out: Prostaglandin Synthesis
T1 construct: purchased; host or cells: beef seminal vesicle
T1 sequence (O62664 25-600): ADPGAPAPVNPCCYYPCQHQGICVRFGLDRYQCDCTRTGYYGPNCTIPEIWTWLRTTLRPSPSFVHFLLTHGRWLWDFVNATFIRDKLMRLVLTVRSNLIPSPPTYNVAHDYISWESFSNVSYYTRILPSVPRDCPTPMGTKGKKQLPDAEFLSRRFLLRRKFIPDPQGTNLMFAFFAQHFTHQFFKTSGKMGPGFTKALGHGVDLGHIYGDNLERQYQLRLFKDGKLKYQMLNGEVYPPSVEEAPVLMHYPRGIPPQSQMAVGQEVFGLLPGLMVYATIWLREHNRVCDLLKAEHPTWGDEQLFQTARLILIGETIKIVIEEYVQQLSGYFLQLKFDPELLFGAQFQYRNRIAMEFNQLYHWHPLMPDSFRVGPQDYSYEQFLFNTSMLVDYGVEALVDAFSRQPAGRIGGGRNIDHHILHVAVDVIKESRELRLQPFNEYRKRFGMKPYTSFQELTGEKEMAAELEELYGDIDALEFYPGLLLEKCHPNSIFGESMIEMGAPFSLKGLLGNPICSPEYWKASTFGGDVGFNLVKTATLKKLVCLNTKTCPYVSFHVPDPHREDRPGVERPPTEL
Experimental: After 1 hr at 37° C. the reaction was stopped with 1 N HCl and extracted with ethyl ether and evaporated. […] The plates were dried and developed in iodine vapor and with the use of prostaglandin standards the appropriate areas were scraped and counted for ^3 H content. Indometacin was used as a standard at 10^-4 M concentration. Test drugs were used at 10^-6 M.

Cathepsin [8] = assay: Lysosomal free cathepsin activity, liver homogenate; format: biochemical, rats; details: 5 μmoles; for Liver % Free Cathepsin Activity, pH5: in vitro, 20 min
Experimental: as §4, §3

[9] = pH 7.4, 5 μmoles, in vitro, read-out: PMNs cAMP Level

Row | Compound | Oxidative Phosphorylation α Ketoglutarate State 3 (liver mitochondria [1]) | Oxidative Phosphorylation α Ketoglutarate State 4 (liver mitochondria [1]) | Oxidative Phosphorylation Succinate State 3 (liver mitochondria [2]) | Oxidative Phosphorylation Succinate State 4 (liver mitochondria [2]) | PMNs % Free Cathespin Activity, pH5 (Cathepsin [3]) | Anti-inflammatory Screen ([4]; 10 mg/kg × 2 intraperitoneally) | LD50 (in vivo) | Writhing Reflex (CF1 male mice) | activity at 5 µmol (cAMP levels in PMNs; [9]) | PMNs % Free Acid Phosphatase Activity, pH5 (Acid phosphatase [5]) | uncoupling with α-ketoglutarate as substrate (liver mitochondria [1]) | Liver % Free Acid Phosphatase Activity, pH5 (Acid phosphatase [6]) | activity at 1 µM [7] | Liver % Free Cathepsin Activity, pH5 (Cathepsin [8]) | further results
1 | CCOC(=O)[BH2-][N+](C)(C)C [XVIII, (CH3)3 N.BH2 COOCH2 CH3] | 54 ± 8 % Control | 126 ± 51 % Control | 61 ± 19 % Control | 119 ± 18 % Control | 16 ± 3 % Control | 87 % Control | > 500 mg/kg | 106 % Control |  |  |  |  |  |  | inhibition of PMN cathepsin activity (Cathepsin [3]): at least 82%
2 | CCNC(=O)[BH2-][N+](C)(C)CC[N+](C)(C)[BH2-]C(=O)NCC [XIII, N,N,N^1,N^1 -Tetramethylethylenediamine-bis(N-ethylamidoborane)] | 50 ± 24 % Control | 162 ± 43 % Control | 66 ± 8 % Control | 117 ± 8 % Control | 70 ± 6 % Control | 65 % Control | > 1000 mg/kg | 55 % Control | 92% | 100 ± 7 % Control | uncoupling | 74 ± 4 % Control | 100 ± 4% |  | 
3 | C[N+](C)(C)[BH2-]I [IX, (CH3)3 N.BH 2 I] | 70 ± 13 % Control | 102 ± 16 % Control | 63 ± 9 % Control | 120 ± 12 % Control | 40 ± 4 % Control | 66 % Control | 250 mg/kg | 37 % Control | 133% | 71 ± 5 % Control |  | 71 ± 6 % Control | 67 ± 5% | 14 ± 3 % Control | activation at 5 µmol (cAMP levels in PMNs; in vitro incubation, 5 μmoles, read-out: increase of cyclic adenosine monophosphate levels in PMNs): 33%; inhibition of free proteolytic cathepsin activity of liver (Cathepsin [8]): at least 75%; inhibition at 1 µM ([7]; read-out: inhibition of prostaglandin synthesis): > 30%
4 | CCNC(=O)[BH2-][N+](C)(C)C [VII, (CH3)3 N.BH2 CON(H)CH2 CH3] | 45 ± 18 % Control | 113 ± 37 % Control | 74 ± 9 % Control | 114 ± 13 % Control | 22 ± 5 % Control | 63 % Control | 320 mg/kg | 29 % Control | 98% | 100 ± 2 % Control | uncoupling | 78 ± 7 % Control | 100 ± 7% |  | inhibition of the writhing reflex (CF1 male mice; text summary of Table II): 70%
5 | O=C(O)[BH2-][n+]1ccccc1 [XVI, Pyridine-carboxyborane] | 63 ± 15 % Control | 109 ± 30 % Control | 75 ± 15 % Control | 110 ± 13 % Control | 31 ± 4 % Control |  |  | 53 % Control |  | 100 ± 5 % Control |  | 77 ± 8 % Control | 76 ± 5% | 58 ± 4 % Control | activity at 5 µmol (cAMP levels in PMNs; pH 7.4, read-out: PMNs cAMP Level): 100%; Anti-inflammatory Screen ([4]; 1/3 dose (of 10 mg/kg × 2)): 74 % Control
6 | [BH3-][NH2+]C(C)(C)C [Compound I, (CH3)3 CNH2.BH3] | 63 ± 14 % Control | 160 ± 35 % Control | 63 ± 8 % Control | 118 ± 11 % Control | 100 ± 4 % Control | 41 % Control | 16 mg/kg |  | 58% | 100 ± 9 % Control | uncoupling | 77 ± 4 % Control | 100 ± 3% | 58 ± 5 % Control | inhibition of the carrageenan induced edema in mouse foot pads ([4]; text summary of Table II): at least 50%
